Tested on: Endogenous Huntingtin Protein
Test: Endogenous Huntingtin Protein Assay (ELISA-based MSD electrochemiluminescence)
Type: cell-based
Conditions: Table 1
Summary of the method: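 Huntingtin was captured overnight at 4 °C on plates coated with 1 μg/mL MW1 (polyQ-expanded) or MAB2166 antibody and BSA-blocked. Detection used a rabbit monoclonal and then a SULFO-TAG goat anti-rabbit antibody (0.25 μg/mL, 1 h each, room temperature). Signal was read by electrochemiluminescence.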

Structure (SMILES) | IC50 [nM]
C[C@H]1C[C@@H](N(C)c2nc3nnc(-c4ccc(-c5cn[nH]c5)cc4O)cc3s2)CCN1 [Compound 394, 2-(6-{methyl[(2S,4S)-2-methylpiperidin-4-yl]amino}[1,3]thiazolo[4,5-c]pyridazin-3-yl)-5-(1H-pyrazol-4-yl)phenol] | ≤ 100
C[C@H]1C[C@@H](N(C)c2nc3nnc(-c4ccc(-c5cn[nH]c5)cc4O)cc3s2)CCN1C [Compound 395, 2-(6-{[(2S,4S)-1,2-dimethylpiperidin-4-yl](methyl)amino}[1,3]thiazolo[4,5-c]pyridazin-3-yl)-5-(1H-pyrazol-4-yl)phenol] | ≤ 100
C[C@@H]1C[C@@H](N(C)c2nc3nnc(-c4ccc(-c5cn[nH]c5)cc4O)cc3s2)CCN1 [Compound 396, 2-(6-{methyl[(2R,4S)-2-methylpiperidin-4-yl]amino][1,3]thiazolo[4,5-c]pyridazin-3-yl)-5-(1H-pyrazol-4-yl)phenol] | ≤ 100
C[C@@H]1C[C@@H](N(C)c2nc3nnc(-c4ccc(-c5cn[nH]c5)cc4O)cc3s2)CCN1C [Compound 397, 2-(6-{[(2R,4S)-1,2-dimethylpiperidin-4-yl](methyl)amino}[1,3]thiazolo[4,5-c]pyridazin-3-yl)-5-(1H-pyrazol-4-yl)phenol] | ≤ 100
CN(c1nc2nnc(-c3ccc(-c4c[nH]nc4F)cc3O)cc2s1)C1CCCNCC1 (stereo not drawn) [Compound 398, 2-{6-[(azepan-4-yl)(methyl)amino][1,3]thiazolo[4,5-c]pyridazin-3-yl)-5-(3-fluoro-1H-pyrazol-4-yl)phenol] | ≤ 100
CN(c1nc2nnc(-c3ccc(-c4cn[nH]c4)cc3O)cc2s1)C1CCN(CCO)CC1 [Compound 399, 2-(6-{[1-(2-hydroxyethyl)piperidin-4-yl](methyl)amino}[1,3]thiazolo[4,5-c]pyridazin-3-yl)-5-(1H-pyrazol-4-yl)phenol] | ≤ 100
